Reference: patent publication US9169254B2, “Spiroimidazolone derivative” (Chugai Seiyaku Kabushiki Kaisha, priority 2009, dated 2015)

Target: T1, human PTH1 receptor (Homo sapiens, UniProt Q03431)
T1 sequence (Q03431 27-593): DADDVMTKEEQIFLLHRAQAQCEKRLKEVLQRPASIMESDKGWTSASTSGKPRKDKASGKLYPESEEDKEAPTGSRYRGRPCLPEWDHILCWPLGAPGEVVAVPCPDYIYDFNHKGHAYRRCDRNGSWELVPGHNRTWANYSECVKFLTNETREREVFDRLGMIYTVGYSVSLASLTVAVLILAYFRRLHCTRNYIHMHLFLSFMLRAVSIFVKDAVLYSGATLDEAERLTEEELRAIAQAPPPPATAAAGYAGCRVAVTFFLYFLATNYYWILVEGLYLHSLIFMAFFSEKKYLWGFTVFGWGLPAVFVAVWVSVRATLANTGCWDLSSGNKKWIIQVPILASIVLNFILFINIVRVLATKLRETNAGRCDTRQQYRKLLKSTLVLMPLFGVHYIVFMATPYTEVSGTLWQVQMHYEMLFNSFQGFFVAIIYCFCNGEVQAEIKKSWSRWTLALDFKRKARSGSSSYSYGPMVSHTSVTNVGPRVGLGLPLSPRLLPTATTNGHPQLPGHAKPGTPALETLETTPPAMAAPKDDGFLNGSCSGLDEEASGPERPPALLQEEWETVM
Experiment: In vitro cAMP signal activity in HKRK-B7 cells (LLC-PK1 cells overexpressing the human PTH1 receptor)
Assay type: cell-based
Conditions: HKRK-B7 cells; compound at 1×10^−3 M; cAMP produced as percentage of that produced by hPTH(1-34) at 100 nM

| cAMP production activity (%) | SMILES |
| --- | --- |
| 93 | CC(=O)N(CCO)c1ccc(-c2ccc(S(=O)(=O)N3CCC4(CC3)N=C(c3ccc(F)c(C(F)(F)F)c3)NC4=O)s2)c(C)c1 [Compound 342, N-(4-{5-[2-(4-Fluoro-3-trifluoromethyl-phenyl)-4-oxo-1,3,8-triaza-spiro[4.5]dec-1-ene-8-sulfonyl]-thiophen-2-yl}-3-methyl-phenyl)-N-(2-hydroxy-ethyl)-acetamide] |
| 43 | Cc1cc(N2C[C@H](CO)OC2=O)ccc1/C=C/S(=O)(=O)N1CCC2(CC1)N=C(c1cccc(C(F)(F)F)c1)NC2=O [Compound 222, 8-{(E)-2-[4-((R)-5-hydroxymethyl-2-oxo-oxazolidin-3-yl)-2-methyl-phenyl]-ethenesulfonyl}-2-(3-trifluoromethyl-phenyl)-1,3,8-triaza-spiro[4.5]dec-1-en-4-one] |
| 32 | C/C=C/C1=NC2(CCN(S(=O)(=O)CCc3ccc(C(=O)N(C)C)cc3C)CC2)C(=O)N1 [Compound 141, 3,N,N-trimethyl-4-{2-[4-oxo-2-((E)-propenyl)-1,3,8-triaza-spiro[4.5]dec-1-ene-8-sulfonyl]-ethyl}-benzamide] |
| 3.0 | Cc1cc(OC2CCN(C(=O)OC(C)(C)C)CC2)ccc1/C=C/S(=O)(=O)N1CCC2(CC1)N=C(c1cccc(OC(F)(F)F)c1)NC2=O [Compound 602, 4-(3-methyl-4-{(E)-2-[4-oxo-2-(3-trifluoromethoxy-phenyl)-1,3,8-triaza-spiro[4.5]dec-1-ene-8-sulfonyl]-vinyl}-phenoxy)-piperidine-1-carboxylic acid tert-butyl ester] |
| 120 | Cc1cc(N(C)C(N)=O)c(Cl)c(C)c1CCS(=O)(=O)N1CCC2(CC1)N=C(C1CCC(CC(F)(F)F)CC1)NC2=O (stereo not drawn) [Compound 937, 1-[2-chloro-3,5-dimethyl-4-(2-{4-oxo-2-[4-(2,2,2-trifluoro-ethyl)-cyclohexyl]-1,3,8-triaza-spiro[4.5]dec-1-ene-8-sulfonyl}-ethyl)-phenyl]-1-methyl-urea] |
| 79 | Cc1cc(C(=O)N(C)C)ccc1CCS(=O)(=O)N1CCC2(CC1)N=C(c1ccc(Cl)c(C(F)(F)F)c1)NC2=O [Compound 126, 4-{2-[2-(4-chloro-3-trifluoromethyl-phenyl)-4-oxo-1,3,8-triaza-spiro[4.5]dec-1-ene-8-sulfonyl]-ethyl}-3,N,N-trimethyl-benzamide] |
| 57 | Cc1cc(C(=O)N2CCN(c3ccc(F)cc3)CC2)ccc1CCS(=O)(=O)N1CCC2(CC1)N=C(c1cccc(C(F)(F)F)c1)NC2=O [Compound 375, 8-(2-{4-[4-(4-fluoro-phenyl)-piperazine-1-carbonyl]-2-methyl-phenyl}-ethanesulfonyl)-2-(3-trifluoromethyl-phenyl)-1,3,8-triaza-spiro[4.5]dec-1-en-4-one] |
| 140 | Cc1cc(C(=O)N2CCC(O)(CF)CC2)cc(C)c1CCS(=O)(=O)N1CCC2(CC1)N=C(c1ccc(OC(F)(F)F)cc1)NC2=O [Compound 1276, 8-{2-[4-(4-fluoromethyl-4-hydroxy-piperidine-1-carbonyl)-2,6-dimethyl-phenyl]-ethanesulfonyl}-2-(4-trifluoromethoxy-phenyl)-1,3,8-triaza-spiro[4.5]dec-1-en-4-one] |

Continued, compound first:

| SMILES | cAMP production activity (%) |
| --- | --- |
| Cc1cc(C(=O)N2CCC(OC[C@H](O)CO)CC2)cc(C)c1/C=C/S(=O)(=O)N1CCC2(CC1)N=C(C1CCC(CCC(F)(F)F)CC1)NC2=O (stereo partly drawn) [Compound 993, 8-((E)-2-{4-[4-((R)-2,3-dihydroxy-propoxy)-piperidine-1-carbonyl]-2,6-dimethyl-phenyl}-ethenesulfonyl)-2-[4-(3,3,3-trifluoro-propyl)-cyclohexyl]-1,3,8-triaza-spiro[4.5]dec-1-en-4-one] | 64 |
| Cc1cc(N2C(=O)CNC2=O)ccc1CCS(=O)(=O)N1CCC2(CC1)N=C([C@H]1CC[C@H](CC(F)(F)F)CC1)NC2=O [Compound 948, 3-[3-Methyl-4-(2-{4-oxo-2-[4-(2,2,2-trifluoro-ethyl)-cyclohexyl]-1,3,8-triaza-spiro[4.5]dec-1-ene-8-sulfonyl}-ethyl)-phenyl]-imidazolidine-2,4-dione] | 68 |
| CC[C@H]1CC[C@H](C2=NC3(CCN(S(=O)(=O)CCc4ccc(NC5=NCCS5)cc4C)CC3)C(=O)N2)CC1 [Compound 1295, 8-{2-[4-(4,5-Dihydro-thiazol-2-ylamino)-2-methyl-phenyl]-ethanesulfonyl}-2-(4-ethyl-cyclohexyl)-1,3,8-triaza-spiro[4.5]dec-1-en-4-one] | 73 |
| Cc1cc(CN(CCCN(C)C)C(=O)OC(C)(C)C)ccc1/C=C/S(=O)(=O)N1CCC2(CC1)N=C(C1CCCCC1)NC2=O [Compound 569, {4-[(E)-2-(2-cyclohexyl-4-oxo-1,3,8-triaza-spiro[4.5]dec-1-ene-8-sulfonyl)-vinyl]-3-methyl-benzyl}-(3-dimethylamino-propyl)-carbamic acid tert-butyl ester] | 4.2 |
| CCCCCCCCCC1=NC2(CCN(S(=O)(=O)CCc3c(C)cc(C(=O)N4CCC4)cc3C)CC2)C(=O)N1 [Compound 982, 8-{2-[4-(azetidine-1-carbonyl)-2,6-dimethyl-phenyl]-ethanesulfonyl}-2-nonyl-1,3,8-triaza-spiro[4.5]dec-1-en-4-one] | 96 |
| Cc1cc(N(C)C(N)=O)cc(C)c1CCS(=O)(=O)N1CCC2(CC1)N=C(c1cccc(OCCCC(F)(F)F)c1)NC2=O [Compound 1338, 1-[3,5-dimethyl-4-(2-{4-oxo-2-[3-(4,4,4-trifluoro-butoxy)-phenyl]-1,3,8-triaza-spiro[4.5]dec-1-ene-8-sulfonyl}-ethyl)-phenyl]-1-methyl-urea] | 84 |
| CC(=O)Nc1ccc(CCS(=O)(=O)N2CCC3(CC2)N=C([C@H]2CC[C@H](CCF)CC2)NC3=O)c(C)c1 [Compound 1061, N-[4-(2-{2-[4-(2-fluoro-ethyl)-cyclohexyl]-4-oxo-1,3,8-triaza-spiro[4.5]dec-1-ene-8-sulfonyl}-ethyl)-3-methyl-phenyl]-acetamide] | 55 |
| Cc1cc(N2C(=O)NC(C)(C)C2=O)ccc1CCS(=O)(=O)N1CCC2(CC1)N=C(C1CCC(C)CC1)NC2=O (stereo not drawn) [Compound 863, 5,5-dimethyl-3-(3-methyl-4-{2-[2-(4-methyl-cyclohexyl)-4-oxo-1,3,8-triaza-spiro[4.5]dec-1-ene-8-sulfonyl]-ethyl}-phenyl)-imidazolidine-2,4-dione] | 67 |
| CNc1cc(C)c(CCS(=O)(=O)N2CCC3(CC2)N=C(CCCCCCCC(F)(F)C(F)(F)F)NC3=O)c(C)c1 [Compound 1035, 8-[2-(2,6-Dimethyl-4-methylamino-phenyl)-ethanesulfonyl]-2-(8,8,9,9,9-pentafluoro-nonyl)-1,3,8-triaza-spiro[4.5]dec-1-en-4-one] | 77 |
| Cc1cc(N2C(=O)CNC2=O)cc(C)c1/C=C/S(=O)(=O)N1CCC2(CC1)N=C(C1CCC(C)CC1)NC2=O (stereo not drawn) [Compound 575, 3-(3,5-Dimethyl-4-{(E)-2-[2-(4-methyl-cyclohexyl)-4-oxo-1,3,8-triaza-spiro[4.5]dec-1-ene-8-sulfonyl]-vinyl}-phenyl)-imidazolidine-2,4-dione] | 57 |
